Assay results as given in patent US20030186315A1, “ADMINISTRATION OF AN AGENT WHICH DECREASES PROCESSING OF AMYLOID PRECURSOR PROTEIN” (priority 1999, published 2003).

Experiments:
NT2N neurons [1] = assay: ELISA distinguishing Aβ40 and Aβ42 in cell lysates and medium of BFA-treated NT2N neurons; format: cell-based, human
Description: Cell lysates and medium from the cells were then analyzed using an ELISA system which quantitatively distinguishes between Aβ40 and Aβ42 to ascertain whether alteration of Aβ levels by BFA was the result of altered levels of Aβ40, Aβ42 or both. Suzuki et al. 1994 Science 264:1336-1340. Results from the ELISA correlated with the immunoprecipitation data in that BFA abolished secretion of Aβ into the medium and reduced overall expression of intracellular Aβ by approximately 60%. However, it was the complete loss of […] that accounted for this decrease. […] Thus, γ-secretases appear to be active in the endoplasmic reticulum, but only to yield Aβ42. Further, it is believed that Aβ42 is preferentially generated in the ER while Aβ40, is generated in more distal components of the exocytic pathway.
NT2N neurons were pretreated with 20 Ag/ml of BFA for 1 hour before the addition of 0.5 mCi/ml of [^35S] methionine to the cultures for 16 hours in the absence or presence of BFA. The cell lysates and media were processed for immunoprecipitation as described in Example 3. For deglycosylation of APPG, the immunoprecipitates containing APPβ were washed twice in sodium phosphate buffer (20 mmol/l, pH 7.2) and boiled for 2 minutes in 10 μl of 1% SDS. The samples were then boiled for an additional 2 minutes after adding 90 μl of the sodium phosphate buffer with sodium azide (10 mmol/l), EDTA (50 mmol/l), and n-Octylglucoside (0.5% w/v). After this denaturation step, deglycosylation was initiated by the addition of 2 mU Neuraminidase (Arthrobacter; Boehringer Mannheim, Indianapolis, Ind.), 2.5 mU 0-Glycosidase (Boehringer Mannheim, Indianapolis, Ind.), and 0.4 U N-Glycosidase F (Boehringer Mannheim, Indianapolis, IN). The samples were then incubated at 37° C. for 18 hours and deglycosylated APPβ was run on 7.5% SDS-PAGE gels as described in Example 2.

NT2N cells = assay: Indirect immunofluorescence microscopy of cell surface distribution of SFV-expressed APP695 in NT2N cells; format: cell-based, human; details: SFV-infected NT2N cells, 20 μg/ml BFA after infection
Description: Since BFA treatment results in retention of all newly synthesized proteins in the ER, additional experiments were conducted to confirm that the generation of Aβ42 in the ER was not due to retention of newly synthesized proteases not being delivered to their proper site of action. Accordingly, an ER-retention signal was placed in APP695 in which the third and fourth amino acids from the C-terminus were changed to lysine (APP695ΔKK) . This lysine motif is sufficient to retain heterologous transmembrane proteins in the ER and intermediate compartment. In these experiments, recombinant Semliki Forest virus (SFV) vectors to express APP695ΔKK. Previous studies have shown that despite high levels of SFV-mediated APP expression, SFV infected NT2N cells display a high degree of fidelity in processing APP (Wertkin et al. 1993 Proc. Natl. Acad. Sci. USA 90:9513-9517; Turner et al. 1996 J. Biol. Chem. 271:8966-8970). […] To determine if APP695ΔKK was in fact retained in the ER, indirect immunofluorescence microscopy was used to monitor both intracellular and cell surface distribution of SFV-expressed APP695 and APP695ΔKK. While intracellular levels of APP695 and APP695ΔKK appeared similar, only APP695 was expressed on the cell surface. […]

NT2N neurons [2] = assay: Brefeldin A treatment of [35S]methionine-labeled NT2N neurons, immunoprecipitation of APP fragments from cell lysates and media; format: cell-based, human
Description: The detection of APPβ in the cell lysate of NT2N neurons, together with the presence of Aβ40 and Aβ42 (Turner et al. 1996 J. Biol. Chem. 271:8966-8970), establish that an intracellular β-secretase pathway(s) exists in these cells. At present, no other cell line has been reported to produce detectable levels of intracellular APPβ from endogenous or over-expressed wild-type APP (Seubert et al. 1993 Nature 361:260-263; Haass et al. 1995a Nature Med. 1:1291-1296; Thinakaran et al. 1996b J. Biol. Chem. 271:9390-9397). […] In the absence of BFA, APPFL, APPβ, and Aβ were recovered from the cell lysates while APPα, APPβ, and Aβ were detected in the media of NT2N neurons.
Cultured NT2N neurons were starved in methionine-free DMEM HG (Life Technologies, Inc., Gaithersburg, Md.) for 30 minutes prior to incubation in fresh methionine-free DMEM HG containing 0.5 mCi/ml of [^35S]methionine (sp act. 1000 Ci/mmol; NEN-DuPont, Boston, Mass.). […] Quantitation of bands in the autoradiogram was performed using the ImageQuant software (Molecular Dynamics Inc. Sunnyvale, Calif.) in accordance with procedures described by Turner et al. 1996 J. Biol. Chem. 271:8966-8970. Radiolabeled proteins in SDS-PAGE gels and nitrocellulose replicas were also analyzed by standard autoradiographic methods. […]

[3] = tested on: human kidney 293 cells stably transfected with APPsw cDNA; details: non-neuronal 293 cells expressing APPsw; cited from earlier work

## C[C@H]1CCC/C=C/[C@@H]2C[C@H](O)C[C@H]2[C@H](O)/C=C/C(=O)O1 [BFA, Brefeldin A]
NT2N neurons [1]; cell lysate
  intracellular Aβ40: complete loss
  intracellular Aβ42: largely unaffected
  reduction of overall expression of intracellular Aβ: approximately 60%
NT2N neurons [1]; medium
  secretion of Aβ into the medium: abolished
NT2N cells
  surface expression of APP695: blocked
NT2N neurons [2]; 20 μg/ml BFA, immunoprecipitation of media
  secretion of APPα, APPβ, and Aβ into the medium: completely abolished
NT2N neurons [2]; SDS-PAGE of immunoprecipitated APPβ
  electrophoretic mobility of APPβ from BFA-treated versus untreated cells: migrated more quickly
[3]
  APPβsw and Aβ production: completely eliminates
